Results from US9932350B2, “Inhibitors of IRAK4 activity” (MERCK SHARP & DOHME CORP., priority 2014, dated 2018).

What follows are compounds tested against GST tagged IRAK4 (Homo sapiens (Human), UniProt Q9NWZ3) (assay: IRAK4 Kinase Assay (IMAP fluorescence polarization)). Settings: 0.5 nM GST tagged IRAK4, 100 μM ATP, 30 minutes at 25° C.
Sequence of GST tagged IRAK4 (Q9NWZ3 whole entry): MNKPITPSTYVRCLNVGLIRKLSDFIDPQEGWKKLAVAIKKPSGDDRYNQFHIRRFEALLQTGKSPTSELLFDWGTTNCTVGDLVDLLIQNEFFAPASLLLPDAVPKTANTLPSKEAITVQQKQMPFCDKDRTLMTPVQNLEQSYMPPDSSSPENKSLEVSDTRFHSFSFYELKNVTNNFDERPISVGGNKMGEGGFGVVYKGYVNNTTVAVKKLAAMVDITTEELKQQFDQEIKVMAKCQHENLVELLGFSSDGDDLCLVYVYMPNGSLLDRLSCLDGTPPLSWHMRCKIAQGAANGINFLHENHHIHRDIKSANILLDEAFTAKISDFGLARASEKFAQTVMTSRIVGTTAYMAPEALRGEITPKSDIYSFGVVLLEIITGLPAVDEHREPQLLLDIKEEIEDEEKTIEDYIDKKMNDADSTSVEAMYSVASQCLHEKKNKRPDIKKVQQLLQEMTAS
Assay type: biochemical
Description: The kinase activity of IRAK4 is determined by its ability to catalyze the phosphorylation of a fluorescent polypeptide substrate. The extent of phosphorylation is measured using the IMAP technology (Molecular Devices) where the phosphorylated fluorescent substrate binds to the large M(III)-based nanoparticles which reduces the rotational speed of the substrate and thus increases its fluorescent polarization (FP).
20 μL reaction mixture contains 10 mM TriHCl, pH 7.2, 0.5 nM GST tagged IRAK4 (SignalChem), 100 nM fluorescent peptide substrate (RP7030, Molecular Devices), 100 μM ATP, 1 mM DDT, 1 mM MgCl2, and 0.01% Tween 20. The reaction is initiated by the addition of ATP. After incubation for 30 minutes at 25° C., 60 μL of Progressive IMAP Reagent (Molecular Devices) is added to stop the reaction. Change in RP7030's FP is determined by a FP reader (Analyst HT, LJL BioSystems).
COc1ccc2ncnc(N[C@H]3CC[C@H](N4CCOCC4)CC3)c2c1 [Example 2-8, 6-methoxy-N-[trans-4-(morpholin-4-yl)cyclohexyl]quinazolin-4-amine] showed an IC50 of 16 nM.
Fc1ccc2ncnc(N[C@H]3CC[C@H](N4CCOCC4)CC3)c2c1 [Example 2-9, 6-fluoro-N-[trans-4-(morpholin-4-yl)cyclohexyl]quinazolin-4-amine] was tested, and the IC50 was 113 nM.
CC(C)Oc1ccc2ncnc(N[C@H]3CC[C@H](N4CCOCC4)CC3)c2c1 [Example 2-10, N-[trans-4-(morpholin-4-yl)cyclohexyl]-6-(propan-2-yloxy)quinazolin-4-amine] was tested, and the IC50 was 82 nM.
With Fc1cc2ncnc(N[C@H]3CC[C@H](N4CCOCC4)CC3)c2cc1Br [Example 2-11, 6-bromo-7-fluoro-N-[trans-4-(morpholin-4-yl)cyclohexyl]quinazolin-4-amine] the IC50 was 15 nM.
COc1cc2c(N[C@H]3CC[C@H](N4CCOCC4)CC3)ncnc2cc1F [Example 2-12, 7-fluoro-6-methoxy-N-[trans-4-(morpholin-4-yl)cyclohexyl]quinazolin-4-amine] gave an IC50 of 58 nM.
Clc1ccc2ncnc(N[C@H]3CC[C@H](N4CCOCC4)CC3)c2c1 [Example 2-13, 6-chloro-N-[trans-4-(morpholin-4-yl)cyclohexyl]quinazolin-4-amine] showed an IC50 of 6 nM.
In the case of CN(C)[C@H]1CC[C@H](Nc2ncnc3ccc(OCC#N)cc23)CC1 [Example 2-15], the IC50 is reported as 12 nM.
CN(C)[C@H]1CC[C@H](Nc2ncnc3ccc(OCCCC#N)cc23)CC1 [Example 2-16, 4-[(4-{[trans-4-(dimethylamino)cyclohexyl]amino}quinazolin-6-yl)oxy]butanenitrile] gave an IC50 of 734 nM.
CN(C)[C@H]1CC[C@H](Nc2ncnc3ccc(OCC(N)=O)cc23)CC1 [Example 2-17, 2-[(4-{[trans-4-(dimethylamino)cyclohexyl]amino}quinazolin-6-yl)oxy]acetamide] was tested, and the IC50 was 52 nM.
With N#Cc1ccc2ncnc(NC3CCC(N4CCOCC4)[C@@H]4C[C@H]34)c2c1 (stereo partly drawn) [Example 2-18, 4-{[(1S,6R)-5-(morpholin-4-yl)bicyclo[4.1.0]hept-2-yl]amino}quinazoline-6-carbonitrile] the IC50 was 56 nM.
N#Cc1ccc2ncnc(N[C@H]3CC[C@H](N4CCC4)CC3)c2c1 [Example 3-1, 4-{[Trans-4-(azetidin-1-yl)cyclohexyl]amino}quinazoline-6-carbonitrile] was tested, and the IC50 was 34 nM.
With N#Cc1ccc2ncnc(N[C@H]3CC[C@@H](N4CCC4)CC3)c2c1 [Example 3-6, 4-{[cis-4-(azetidin-1-yl)cyclohexyl]amino} quinazoline-6-carbonitrile] the IC50 was 768 nM.
CC1OCCN([C@H]2CC[C@H](Nc3ncnc4ccc(C#N)cc34)CC2)C1C (stereo partly drawn) [Example 3-7, 4-{[trans-4-(2,3-dimethylmorpholin-4-yl)cyclohexyl]amino} quinazoline-6-carbonitrile] was tested, and the IC50 was 96 nM.
CC1OCCN([C@H]2CC[C@@H](Nc3ncnc4ccc(C#N)cc34)CC2)C1C (stereo partly drawn) [Example 3-8, 4-{[cis-4-(2,3-dimethylmorpholin-4-yl)cyclohexyl]amino} quinazoline-6-carbonitrile] gave an IC50 of 2550 nM.
C[C@@H]1CN([C@H]2CC[C@H](Nc3ncnc4ccc(C#N)cc34)CC2)C[C@H](C)O1 [Example 3-9, 4-({trans-4-[(2R,6S)-2,6-dimethylmorpholin-4-yl]cyclohexyl}amino) quinazoline-6-carbonitrile] was tested, and the IC50 was 5 nM.
With CS(=O)(=O)C1CCN([C@H]2CC[C@H](Nc3ncnc4ccc(C#N)cc34)CC2)CC1 [Example 3-10, 4-({trans-4-[4-(methylsulfonyl)piperidin-1-yl]cyclohexyl}amino) quinazoline-6-carbonitrile] the IC50 was 11 nM.
CS(=O)(=O)C1CCN([C@H]2CC[C@H](Nc3ncnc4ccc(C#N)cc34)CC2)C1 (stereo partly drawn) [Example 3-13, 4-({trans-4-[3-(methylsulfonyl)pyrrolidin-1-yl]cyclohexyl}amino) quinazoline-6-carbonitrile] gave an IC50 of 14 nM.
With N#Cc1ccc2ncnc(N[C@H]3CC[C@H](N4C[C@@H]5C[C@H]4CO5)CC3)c2c1 [Example 3-18, 4-({trans-4-[(1S,4S)-2-oxa-5-azabicyclo[2.2.1]hept-5-yl]cyclohexyl}amino) quinazoline-6-carbonitrile] the IC50 was 114 nM.
Work on N#Cc1ccc2ncnc(N[C@H]3CC[C@H](N4CCC(F)CC4)CC3)c2c1 [Example 3-19, 4-{[trans-4-(4-fluoropiperidin-1-yl)cyclohexyl]amino} quinazoline-6-carbonitrile] yielded an IC50 of 3 nM.
Work on CS(=O)(=O)N1CCN([C@H]2CC[C@H](Nc3ncnc4ccc(C#N)cc34)CC2)CC1 [Example 3-20, 4-({trans-4-[4-(methylsulfonyl)piperazin-1-yl]cyclohexyl}amino) quinazoline-6-carbonitrile] yielded an IC50 of 8 nM.
For N#Cc1ccc2ncnc(N[C@H]3CC[C@H](NCC(F)(F)F)CC3)c2c1 [Example 3-21, 4-({trans-4-[(2,2,2-trifluoroethyl)amino]cyclo-hexyl}amino)quinazoline-6-carbonitrile], the IC50 was 512 nM.
In the case of COCCN[C@H]1CC[C@H](Nc2ncnc3ccc(C#N)cc23)CC1 [Example 3-22, 4-({trans-4-[(2-methoxyethyl)amino]cyclohexyl}amino)quinazoline-6-carbonitrile], the IC50 is reported as 16 nM.
N#Cc1ccc2ncnc(N[C@H]3CC[C@H](NC4CC4)CC3)c2c1 [Example 3-23, 4-{[trans-4-(cyclopropylamino)cyclo-hexyl]amino}quinazoline-6-carbonitrile] showed an IC50 of 26 nM.
N#Cc1ccc2ncnc(N[C@H]3CC[C@H](N4CCOC5CCCC54)CC3)c2c1 (stereo partly drawn) [Example 3-24, 4-({trans-4-[(4aS,7aS or 4aR,7aR)-hexahydrocyclopenta[b] [1,4]oxazin-4(4aH)-yl]cyclohexyl}amino) quinazoline-6-carbonitrile] was tested, and the IC50 was 11 nM.
With N#Cc1ccc2ncnc(N[C@H]3CC[C@H](N4CCCC5COCCC54)CC3)c2c1 (stereo partly drawn) [Example 3-25, 4-{[trans-4-(hexahydro-2H-pyrano[4,3-b]pyridin-1(5H)-yl)cyclohexyl]amino} quinazoline-6-carbonitrile] the IC50 was 53 nM.
In the case of N#Cc1ccc2ncnc(N[C@H]3CC[C@H](N4CCOC5(CC5)C4)CC3)c2c1 [Example 3-26, 4-{[trans-4-(4-oxa-7-azaspiro[2.5]oct-7-yl)cyclohexyl]amino} quinazoline-6-carbonitrile], the IC50 is reported as 46 nM.
For N#Cc1ccc2ncnc(N[C@H]3CC[C@H](N4CCOC(CF)C4)CC3)c2c1 (stereo partly drawn) [Example 3-27, 4-({trans-4-[2-(fluoromethyl)morpholin-4-yl]cyclohexyl}amino) quinazoline-6-carbonitrile], the IC50 was 8 nM.
C[C@H]1COCCN1[C@H]1CC[C@H](Nc2ncnc3ccc(C#N)cc23)CC1 [Example 3-28, 4-({trans-4-[(3S)-3-methylmorpholin-4-yl]cyclohexyl}amino) quinazolin-6-carbonitrile] showed an IC50 of 47 nM.
For COC1CN([C@H]2CC[C@H](Nc3ncnc4ccc(C#N)cc34)CC2)C1 [Example 3-29, 4-{[trans-4-(3-methoxyazetidin-1-yl)cyclohexyl]amino} quinazoline-6-carbonitrile], the IC50 was 11 nM.
CN1CCN([C@H]2CC[C@H](Nc3ncnc4ccc(C#N)cc34)CC2)CC1 [Example 3-30, 4-{[trans-4-(4-methylpiperazin-1-yl)cyclohexyl]amino} quinazoline-6-carbonitrile] was tested, and the IC50 was 17 nM.
Work on C[C@@H]1COCCN1[C@H]1CC[C@H](Nc2ncnc3ccc(C#N)cc23)CC1 [Example 3-31, 4-({trans-4-[(3R)-3-methylmorpholin-4-yl]cyclohexyl}amino) quinazoline-6-carbonitrile] yielded an IC50 of 10 nM.
Work on CN(C1CC1)[C@H]1CC[C@H](Nc2ncnc3ccc(C#N)cc23)CC1 [Example 3-32, 4-({trans-4-[cyclopropyl(methyl)amino]cyclohexyl}amino) quinazoline-6-carbonitrile] yielded an IC50 of 15 nM.
For N#Cc1ccc2ncnc(N[C@H]3CC[C@H](N4CCCC(F)(F)C4)CC3)c2c1 [Example 3-33, 4-{[trans-4-(3,3-difluoropiperidin-1-yl)cyclohexyl]amino} quinazoline-6-carbonitrile], the IC50 was 132 nM.
N#Cc1ccc2ncnc(N[C@H]3CC[C@H](N4CC[C@H](O)C4)CC3)c2c1 [Example 3-34, 4-({trans-4-[(3S)-3-hydroxypyrrolidin-1-yl]cyclohexyl}amino) quinazoline-6-carbonitrile] was tested, and the IC50 was 33 nM.
In the case of N#Cc1ccc2ncnc(N[C@H]3CC[C@H](N4CCCC(F)C4)CC3)c2c1 (stereo partly drawn) [Example 3-35, 4-{[trans-4-(3-fluoropiperidin-1-yl)cyclohexyl]amino} quinazoline-6-carbonitrile], the IC50 is reported as 38 nM.
CC1(O)CCN([C@H]2CC[C@H](Nc3ncnc4ccc(C#N)cc34)CC2)C1 (stereo partly drawn) [Example 3-36, 4-{[trans-4-(3-hydroxy-3-methylpyrrolidin-1-yl)cyclohexyl]amino} quinazoline-6-carbonitrile] showed an IC50 of 25 nM.
N#Cc1ccc2ncnc(N[C@H]3CC[C@H](N4CC(N5CCOCC5)C4)CC3)c2c1 [Example 3-37, 4-({trans-4-[3-(morpholin-4-yl)azetidin-1-yl]cyclohexyl}amino) quinazoline-6-carbonitrile] gave an IC50 of 41 nM.
In the case of N#Cc1ccc2ncnc(N[C@H]3CC[C@H](N4CC[C@@H](O)C4)CC3)c2c1 [Example 3-38, 4-({trans-4-[(3R)-3-hydroxypyrrolidin-1-yl]cyclohexyl}amino) quinazoline-6-carbonitrile], the IC50 is reported as 15 nM.
